According to US9333268B2, “Methods of treatment with arginine deiminase” (Polaris Group, priority 2012, dated 2016):
Structures can show the parent of a compound that is named as a salt.

What was measured:
[1] = test system: human pancreatic cancer cell line MIA-PaCa2; test: Western blot/ELISA of caspase 3 cleavage, LC3 and p62; format: cell-based; settings: ChQ 5 μM added to ADI-PEG 0.3 μg/mL, 72 hours
Method: The human pancreatic cancer cell line MIA-PaCa2 was treated in vitro and in vivo with pegylated arginine deiminase (ADI-PEG) alone or in the presence of ChQ. Cell death was measured by propidium iodide (PI)-FACS to determine sub-G1 DNA content, and apoptosis was evaluated by Annexin V-PI flow cytometry. Cleavage of caspase 3 was evaluated by western blots and ELISA. Autophagy was measured by evaluating the expression levels of LC3 and […] p62 (p62) by western blots and ELISA.
In order to determine if ADI induces apoptosis and autophagy in a caspase dependent manner, cells were incubated with either ADI-PEG or a combination of ADI-PEG and ZVAD-fmk, a pan-caspase inhibitor.
The levels of p62, LC3B-I, and LC3B-II were measured by western blot analysis in order to examine autophagic flux.

SK-LC-13 = test: Western blot of autophagy-related protein LC3-II; format: cell-based, human; settings: 24 hour incubation
From the text: Following washing, the membranes were then probed with the appropriate secondary antibody before proteins were finally visualized using ECL reagent (Perkin-Elmer, Fremont Calif., USA).
An assay for the formation of the autophagy-related protein LC3-II assessed if treatment with ADI-PEG 20 was able to induce cellular autophagy in SCLC. […] Chloroquine is a known inhibitor of autophagy that disrupts normal lysosomal functions, and thus results in an increase in the cellular level of LC3-II.

SK-LC-13 cells = test: FACS analysis of apoptosis by sub-G1 DNA content (propidium iodide); format: cell-based, human; settings: 25 nM, 72 h
Method: Apoptosis was measured by FACS of propidium-iodide-stained cells as detailed by Riccardi et al (Riccardi and Nicoletti, Nat Protoc 1(3):1458-1461, 2006). Cells were plated in 24-well plates and treated with ADI-PEG 20 for […]. Cells were then harvested, washed and fixed in 70% ethanol. DNA was then stained using 20 μg ml^−1 propidium iodide containing 10 μgml^−1 DNAse-free RNAse A (Sigma-Aldrich). Cells were then read on a BD FACSCalibur (BD Biosciences) and analyzed using Flow Jo Software (Tree Star, Ashland, Oreg., USA).
In order to determine the possible mechanism of the antiproliferative effects of ADI-PEG 20 a FACS analysis of apoptosis by sub-G1 DNA content was performed. Cells were treated for 72 h before the analysis was performed.

CCN(CCO)CCCC(C)Nc1ccnc2cc(Cl)ccc12 (stereo not drawn) [ChQ, hydroxychloroquine]
ADI induced apoptosis [1]: enhanced ADI induced apoptosis | LC3B-I and LC3B-II [1]: increase in the build up of both LC3B-I and LC3B-II | autophagic flux [1]: diminished autophagic flux | level of p62 [1]: increase in the level of p62

CCN(CC)CCCC(C)Nc1ccnc2cc(Cl)ccc12 (stereo not drawn) [chloroquine, reference compound]
cellular level of LC3-II (SK-LC-13): very robust expression of LC3-II

CC[C@@]1(O)C(=O)OCc2c1cc1n(c2=O)Cc2cc3c(CN(C)C)c(O)ccc3nc2-1 [topotecan, Topotecan hydrochloride, reference compound]
cells in apoptosis (sub-G1 DNA content) (SK-LC-13 cells): around 45%
